{"source": "paper PMC6770320", "about": "(Cancers, 2019)", "key": {"[1]": {"biological_target": "T1, multidrug resistance protein 2 (MRP2) (Homo sapiens, UniProt Q92887)", "T1 construct": "gene ABCC2; membrane vesicles from Sf9 cells overexpressing human MRP2", "T1 sequence (Q92887 whole entry)": "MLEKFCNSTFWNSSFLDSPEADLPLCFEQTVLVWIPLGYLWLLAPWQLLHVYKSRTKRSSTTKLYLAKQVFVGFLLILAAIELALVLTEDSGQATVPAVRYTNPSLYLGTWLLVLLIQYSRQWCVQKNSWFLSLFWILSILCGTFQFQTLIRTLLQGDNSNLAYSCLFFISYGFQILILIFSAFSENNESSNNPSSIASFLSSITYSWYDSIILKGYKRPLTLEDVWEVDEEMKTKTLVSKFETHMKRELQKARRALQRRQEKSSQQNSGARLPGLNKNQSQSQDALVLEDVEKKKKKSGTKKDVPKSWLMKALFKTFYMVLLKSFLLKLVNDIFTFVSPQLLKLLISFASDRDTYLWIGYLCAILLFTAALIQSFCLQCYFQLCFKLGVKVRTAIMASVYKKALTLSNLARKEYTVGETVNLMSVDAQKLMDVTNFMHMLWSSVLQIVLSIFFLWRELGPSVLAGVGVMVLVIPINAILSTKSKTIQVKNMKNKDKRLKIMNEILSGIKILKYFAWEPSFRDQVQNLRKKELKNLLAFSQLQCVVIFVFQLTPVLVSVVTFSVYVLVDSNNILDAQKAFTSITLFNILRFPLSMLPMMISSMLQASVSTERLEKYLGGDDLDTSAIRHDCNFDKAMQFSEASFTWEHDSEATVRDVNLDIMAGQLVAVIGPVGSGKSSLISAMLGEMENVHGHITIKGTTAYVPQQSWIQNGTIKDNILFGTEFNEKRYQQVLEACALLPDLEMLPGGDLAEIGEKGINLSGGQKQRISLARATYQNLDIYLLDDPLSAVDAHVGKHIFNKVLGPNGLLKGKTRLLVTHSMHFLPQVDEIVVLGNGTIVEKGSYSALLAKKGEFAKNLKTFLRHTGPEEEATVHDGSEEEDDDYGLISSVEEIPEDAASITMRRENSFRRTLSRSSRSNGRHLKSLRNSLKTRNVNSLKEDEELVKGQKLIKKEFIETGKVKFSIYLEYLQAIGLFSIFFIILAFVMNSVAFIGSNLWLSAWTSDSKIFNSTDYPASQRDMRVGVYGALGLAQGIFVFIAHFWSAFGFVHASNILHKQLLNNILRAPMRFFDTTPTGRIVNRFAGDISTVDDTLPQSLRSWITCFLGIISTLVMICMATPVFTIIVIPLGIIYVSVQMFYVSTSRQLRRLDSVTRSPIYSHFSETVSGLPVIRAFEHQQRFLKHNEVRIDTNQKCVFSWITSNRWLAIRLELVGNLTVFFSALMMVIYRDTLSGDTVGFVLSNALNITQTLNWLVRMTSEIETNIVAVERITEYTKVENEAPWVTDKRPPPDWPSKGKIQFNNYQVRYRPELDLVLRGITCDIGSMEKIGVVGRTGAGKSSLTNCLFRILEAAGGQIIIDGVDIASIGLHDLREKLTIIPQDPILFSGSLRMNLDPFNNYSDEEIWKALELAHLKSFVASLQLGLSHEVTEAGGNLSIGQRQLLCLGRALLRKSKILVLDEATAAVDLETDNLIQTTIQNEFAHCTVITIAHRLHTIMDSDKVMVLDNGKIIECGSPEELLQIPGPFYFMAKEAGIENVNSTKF", "test": "inhibition of oxaliplatin-stimulated ([…]) vanadate-sensitive ATPase in membrane vesicles; […] reduction at […], no apparent effect at […]", "type": "cell-based"}, "[2]": {"biological_target": "T1, multidrug resistance protein 2 (MRP2)", "test": "vanadate-sensitive ATPase stimulation in Sf9/MRP2 membrane vesicles, with control vesicles", "type": "biochemical", "excerpt": "vanadate-sensitive ATPase stimulation in Sf9/MRP2 membrane vesicles, with control vesicles on multidrug resistance protein 2 (MRP2) | oxaliplatin stimulated the vanadate-sensitive MRP2 ATPase activities in a concentration-dependent manner"}, "[3]": {"biological_target": "T1, multidrug resistance protein 2 (MRP2)", "test": "inhibition of oxaliplatin-stimulated ([…]) vanadate-sensitive ATPase in membrane vesicles; […] reduction at […]", "type": "cell-based"}}}
{"molecule": "O=c1c(O)c(-c2cc(O)c(O)c(O)c2)oc2cc(O)cc(O)c12", "note": "[myricetin]", "values": [{"measurement": "inhibition at 60 µM", "setting": "[1]", "result": 40, "unit": "%"}]}
{"molecule": "O=C1[O][Pt]2([NH][C@@H]3CCCC[C@H]3[NH]2)[O]C1=O", "note": "[oxaliplatin]", "values": [{"measurement": "EC50", "setting": "[2]", "result": "8.3 ± 0.7", "unit": "µM"}]}
{"molecule": "CCc1oc2ccccc2c1C(=O)c1cc(Br)c(O)c(Br)c1", "note": "[benzbromarone]", "values": [{"measurement": "inhibition at 100 µM", "setting": "[3]", "result": 90, "unit": "%"}]}
